Drawing on patent US7704995B2 (Exelixis, Inc., priority 2003, dated 2010), this text covers IC50 for one compound.

In general, IC50 refers to the midpoint of a concentration-inhibition curve.

What all share (assay): Kinase specificity assay (33P phosphoryl transfer, LCCA or AlphaScreen)
Common to all, as to assay type: biochemical
(In general: Bead proximity is the source of the signal in Alpha formats.)

The target of experiment [1] is PDGFR-β (Homo sapiens, UniProt P09619). The following applies: ATP close to KM; read-out: PDGFR-β inhibition, IC50. The procedure: (§1) Kinase activity and compound inhibition are investigated using one or more of the three assay formats described below. The ATP concentrations for each assay are selected to be close to the Michaelis-Menten constant (KM) for each individual kinase. Dose-response experiments are performed at 10 different inhibitor concentrations in a 384-well plate format. The data are fitted to the following four-parameter equation: Y=Min+(Max−Min)/(1+(X/IC50)^H) where Y is the observed signal, X is the inhibitor concentration, Min is the background signal in the absence of enzyme (0% enzyme activity), Max is the signal in the absence of inhibitor (100% enzyme activity), IC50 is the inhibitor concentration at 50% enzyme inhibition and H represents the empirical Hill's slope to measure the cooperativity. Typically H is close to unity. ^33P Phosphoryl Transfer Assay:
(§2) Greiner 384-well white, clear bottom, high binding plates are coated with 2 μg/well of protein or peptide substrate in a 50 μL volume overnight at ambient temperature. The coating buffer typically contains 40 μg/mL substrate, 22.5 mM Na2CO3, 27.5 mM NaHCO3, 150 mM NaCl and 3 mM NaN3. The coating solution is aspirated and the plates are washed once with 50 μL of assay buffer and padded dry. Subsequently compounds and enzymes are mixed with γ^33P-ATP (3.3 μCi/nmol) in a total volume of 20 uL in suitable assay buffers. The mixture is incubated at ambient temperature for 1.5-2.5 hrs and terminated by aspiration using a Molecular Devices EMBLA 96-head plate washer. The plates are subsequently washed 6-12 times with PBST or TBS buffer. Scintillation fluid (50 μl/well) is then added, the plates are sealed and activity assessed by liquid scintillation spectrometry using a Perkin Elmer MicroBeta TriLux.
(§3) In the LCCA assays, kinase activity is measured as the percent ATP consumed following the kinase reaction using luciferase-luciferin-coupled chemiluminescence. Greiner 384-well white, clear bottom, medium binding plates are used for LCCA. Briefly, the kinase reaction is initiated by mixing compounds, ATP and kinase in a 20 uL volume. The mixture is incubated at ambient temperature for 2-4 hrs. At the end of the kinase reaction, a 20 uL luciferase-luciferin mix is added and the chemiluminescent signal is read using a Wallac Victor^2 reader. The luciferase-luciferin mix consists of 50 mM HEPES, pH 7.8, 8.5 ug/mL oxalic acid (pH 7.8), 5 (or 50) mM DTT, 0.4% Triton X-100, 0.25 mg/mL coenzyme A, 63 uM AMP, 28 ug/mL luciferin and 40,000 units of light/mL luciferase. For the LCCA assays, total ATP consumption has been standardized to 25-45% and the IC50 values correlates well with those determined by radiometric assays.
(§4) AlphaScreen technology is a proximity assay which utilizes the increase in fluorescent signal when donor and acceptor beads are close in proximity. Biotinylated poly(Glu,Tyr) 4:1 is used as the kinase substrate, in conjunction with streptavidin-coated donor beads and anti-phosphortyrosine antibody PY100-coated acceptor beads. Upon phosphorylation, the peptide substrate can bind to both donor and acceptor beads giving rise to an increase in fluorescence. Compounds, ATP, biotinylated poly(Glu, Tyr) and kinases are mixed in a volume of 20 uL for 1 hr at ambient temperature using Greiner 384-well white clear bottom medium binding plates. Following incubation a 10 uL solution containing […] AlphaScreen beads, 75 mM Hepes, pH 7.4, 300 mM NaCl, 120 mM EDTA, 0.3% BSA and 0.03% Tween-20 is added to each well. After 2-16 hr incubation of the beads, plates are read in a Perkin Elmer AlphaQuest reader. The IC50 values correlates well with those of radiometric assays.

The target in experiment [2] is Fyn (Homo sapiens, UniProt P06241). The following applies: ATP close to KM; read-out: Fyn inhibition, IC50. The procedure: as §1, §2, §3, §4
In experiment [3] the target is EMK (Homo sapiens, UniProt Q7KZI7). The following applies: ATP close to KM; read-out: EMK inhibition, IC50. The procedure:
as §1, §2, §3, §4

Experiment [4] concerns the target T1, EphB4 (Homo sapiens, UniProt P54760).
T1 sequence (P54760 16-987): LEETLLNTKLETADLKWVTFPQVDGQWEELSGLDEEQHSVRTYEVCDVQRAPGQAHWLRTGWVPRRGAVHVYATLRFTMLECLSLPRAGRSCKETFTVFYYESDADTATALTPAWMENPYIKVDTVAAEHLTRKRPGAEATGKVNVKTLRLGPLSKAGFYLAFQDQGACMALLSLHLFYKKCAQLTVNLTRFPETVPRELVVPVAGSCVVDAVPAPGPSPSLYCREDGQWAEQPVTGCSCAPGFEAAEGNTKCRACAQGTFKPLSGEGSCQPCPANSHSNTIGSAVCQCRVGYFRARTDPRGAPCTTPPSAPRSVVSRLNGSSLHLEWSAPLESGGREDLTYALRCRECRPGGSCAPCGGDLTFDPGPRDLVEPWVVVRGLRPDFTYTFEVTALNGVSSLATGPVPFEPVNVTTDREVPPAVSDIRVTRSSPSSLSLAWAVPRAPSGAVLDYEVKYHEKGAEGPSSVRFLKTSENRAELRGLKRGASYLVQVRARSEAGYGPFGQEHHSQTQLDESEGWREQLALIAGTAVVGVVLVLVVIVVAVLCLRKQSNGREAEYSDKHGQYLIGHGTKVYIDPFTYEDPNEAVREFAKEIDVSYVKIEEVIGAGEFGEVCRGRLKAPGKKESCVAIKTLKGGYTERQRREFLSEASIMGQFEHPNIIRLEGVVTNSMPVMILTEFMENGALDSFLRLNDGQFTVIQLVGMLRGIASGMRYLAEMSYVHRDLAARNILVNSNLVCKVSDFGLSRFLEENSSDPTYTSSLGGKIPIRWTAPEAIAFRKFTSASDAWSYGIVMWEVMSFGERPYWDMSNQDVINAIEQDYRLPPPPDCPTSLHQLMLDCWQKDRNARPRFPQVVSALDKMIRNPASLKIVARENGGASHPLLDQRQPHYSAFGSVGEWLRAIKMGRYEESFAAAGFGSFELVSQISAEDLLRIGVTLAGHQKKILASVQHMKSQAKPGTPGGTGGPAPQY
Particulars: ATP close to KM; read-out: EphB4 inhibition, IC50. As to the method: as §1, §2, §3, §4

The target of experiment [5] is CLK1 (Homo sapiens, UniProt P49759). Particulars: ATP close to KM; read-out: CLK1 inhibition, IC50. The procedure:
as §1, §2, §3, §4

Experiment [6] has as its target Flt1 (Homo sapiens, UniProt P17948). The following applies: ATP close to KM; read-out: Flt1 inhibition, IC50. As to the method:
as §1, §2, §3, §4

The target of experiment [7] is FGFR1 (Homo sapiens, UniProt P11362). The following applies: ATP close to KM; read-out: FGFR1 inhibition, IC50. The procedure: as §1, §2, §3, §4

The structures appear in SMILES notation. Where only a bound is given, the exact number is not on record here.

FGFR1, sequence (P11362 22-822): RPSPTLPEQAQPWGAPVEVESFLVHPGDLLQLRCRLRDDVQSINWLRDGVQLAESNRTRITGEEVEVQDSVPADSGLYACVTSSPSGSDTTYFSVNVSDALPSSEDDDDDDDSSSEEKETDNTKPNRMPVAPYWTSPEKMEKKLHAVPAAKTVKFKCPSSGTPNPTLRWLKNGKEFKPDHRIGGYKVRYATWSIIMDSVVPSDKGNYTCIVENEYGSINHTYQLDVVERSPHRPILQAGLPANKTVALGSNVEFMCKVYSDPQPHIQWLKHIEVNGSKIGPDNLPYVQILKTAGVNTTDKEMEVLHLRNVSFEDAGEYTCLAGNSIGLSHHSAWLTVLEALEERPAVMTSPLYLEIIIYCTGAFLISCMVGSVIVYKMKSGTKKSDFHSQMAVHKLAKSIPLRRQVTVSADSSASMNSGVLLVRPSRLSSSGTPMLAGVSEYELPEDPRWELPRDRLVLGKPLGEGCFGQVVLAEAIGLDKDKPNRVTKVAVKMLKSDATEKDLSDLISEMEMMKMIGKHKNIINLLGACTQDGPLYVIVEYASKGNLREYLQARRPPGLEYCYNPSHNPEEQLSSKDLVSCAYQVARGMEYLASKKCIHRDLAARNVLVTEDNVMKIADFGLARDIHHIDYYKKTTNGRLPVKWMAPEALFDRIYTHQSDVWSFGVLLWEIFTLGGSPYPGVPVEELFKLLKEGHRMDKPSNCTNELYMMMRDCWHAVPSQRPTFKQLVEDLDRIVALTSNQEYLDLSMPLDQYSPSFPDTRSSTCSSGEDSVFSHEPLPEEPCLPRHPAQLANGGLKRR
Flt1, sequence (P17948 27-1338): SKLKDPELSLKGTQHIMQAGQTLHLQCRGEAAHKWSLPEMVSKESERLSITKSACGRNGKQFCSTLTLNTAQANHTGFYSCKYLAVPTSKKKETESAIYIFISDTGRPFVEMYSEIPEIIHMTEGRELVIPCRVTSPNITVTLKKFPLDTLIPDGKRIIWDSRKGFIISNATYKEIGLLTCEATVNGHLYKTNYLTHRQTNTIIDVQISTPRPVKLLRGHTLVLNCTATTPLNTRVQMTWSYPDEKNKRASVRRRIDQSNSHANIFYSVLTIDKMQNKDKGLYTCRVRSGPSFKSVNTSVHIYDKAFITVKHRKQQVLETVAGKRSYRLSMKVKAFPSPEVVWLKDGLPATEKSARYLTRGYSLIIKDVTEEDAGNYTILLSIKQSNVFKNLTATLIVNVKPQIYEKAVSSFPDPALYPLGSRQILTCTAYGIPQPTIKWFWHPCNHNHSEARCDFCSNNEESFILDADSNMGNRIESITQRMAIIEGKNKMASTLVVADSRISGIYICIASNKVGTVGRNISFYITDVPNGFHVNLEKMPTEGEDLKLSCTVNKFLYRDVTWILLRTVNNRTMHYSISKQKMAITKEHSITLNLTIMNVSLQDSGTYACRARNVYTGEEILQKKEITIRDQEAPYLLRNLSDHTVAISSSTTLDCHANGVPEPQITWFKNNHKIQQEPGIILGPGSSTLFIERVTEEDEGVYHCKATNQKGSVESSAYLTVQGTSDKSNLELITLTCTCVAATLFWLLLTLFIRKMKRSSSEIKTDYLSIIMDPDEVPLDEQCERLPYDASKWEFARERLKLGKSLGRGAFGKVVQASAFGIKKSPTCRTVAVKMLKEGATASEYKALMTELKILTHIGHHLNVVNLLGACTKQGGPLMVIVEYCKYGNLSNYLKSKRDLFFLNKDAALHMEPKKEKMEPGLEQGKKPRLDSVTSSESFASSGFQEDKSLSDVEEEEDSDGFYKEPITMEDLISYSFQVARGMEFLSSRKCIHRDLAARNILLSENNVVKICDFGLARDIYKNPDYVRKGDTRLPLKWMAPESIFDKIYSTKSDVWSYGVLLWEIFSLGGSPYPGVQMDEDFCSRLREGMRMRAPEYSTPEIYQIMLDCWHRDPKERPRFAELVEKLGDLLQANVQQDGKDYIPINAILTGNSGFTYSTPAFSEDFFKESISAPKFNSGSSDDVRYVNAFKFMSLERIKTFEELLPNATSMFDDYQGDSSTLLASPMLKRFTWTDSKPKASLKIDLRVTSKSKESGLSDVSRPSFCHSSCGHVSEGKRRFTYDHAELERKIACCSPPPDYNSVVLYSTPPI
PDGFR-β, sequence (P09619 33-1106): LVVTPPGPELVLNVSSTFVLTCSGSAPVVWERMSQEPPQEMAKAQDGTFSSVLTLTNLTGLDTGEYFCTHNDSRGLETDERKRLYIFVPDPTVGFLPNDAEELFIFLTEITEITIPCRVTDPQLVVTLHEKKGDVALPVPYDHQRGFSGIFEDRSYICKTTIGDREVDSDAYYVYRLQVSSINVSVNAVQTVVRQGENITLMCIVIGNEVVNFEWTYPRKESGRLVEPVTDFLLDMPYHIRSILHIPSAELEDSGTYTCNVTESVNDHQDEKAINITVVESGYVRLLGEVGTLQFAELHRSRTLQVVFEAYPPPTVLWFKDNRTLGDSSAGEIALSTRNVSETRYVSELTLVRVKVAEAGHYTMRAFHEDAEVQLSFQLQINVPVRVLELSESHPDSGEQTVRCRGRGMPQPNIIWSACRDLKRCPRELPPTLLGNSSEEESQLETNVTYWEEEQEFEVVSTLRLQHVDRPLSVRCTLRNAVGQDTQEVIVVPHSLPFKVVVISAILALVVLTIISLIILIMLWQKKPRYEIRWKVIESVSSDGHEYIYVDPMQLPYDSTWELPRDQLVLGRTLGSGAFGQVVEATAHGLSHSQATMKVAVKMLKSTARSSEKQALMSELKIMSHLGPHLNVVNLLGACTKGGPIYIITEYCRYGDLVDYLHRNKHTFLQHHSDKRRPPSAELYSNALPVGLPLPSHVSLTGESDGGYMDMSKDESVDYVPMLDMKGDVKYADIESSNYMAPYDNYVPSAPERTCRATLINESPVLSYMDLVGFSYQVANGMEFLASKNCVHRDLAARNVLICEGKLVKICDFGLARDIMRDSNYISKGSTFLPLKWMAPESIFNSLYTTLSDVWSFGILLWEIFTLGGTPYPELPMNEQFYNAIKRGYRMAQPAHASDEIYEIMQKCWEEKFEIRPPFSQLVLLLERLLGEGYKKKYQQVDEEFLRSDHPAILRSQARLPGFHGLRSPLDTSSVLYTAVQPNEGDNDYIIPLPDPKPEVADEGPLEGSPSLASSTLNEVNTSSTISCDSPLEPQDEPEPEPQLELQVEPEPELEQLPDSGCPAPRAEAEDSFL
CLK1, sequence (P49759 whole entry): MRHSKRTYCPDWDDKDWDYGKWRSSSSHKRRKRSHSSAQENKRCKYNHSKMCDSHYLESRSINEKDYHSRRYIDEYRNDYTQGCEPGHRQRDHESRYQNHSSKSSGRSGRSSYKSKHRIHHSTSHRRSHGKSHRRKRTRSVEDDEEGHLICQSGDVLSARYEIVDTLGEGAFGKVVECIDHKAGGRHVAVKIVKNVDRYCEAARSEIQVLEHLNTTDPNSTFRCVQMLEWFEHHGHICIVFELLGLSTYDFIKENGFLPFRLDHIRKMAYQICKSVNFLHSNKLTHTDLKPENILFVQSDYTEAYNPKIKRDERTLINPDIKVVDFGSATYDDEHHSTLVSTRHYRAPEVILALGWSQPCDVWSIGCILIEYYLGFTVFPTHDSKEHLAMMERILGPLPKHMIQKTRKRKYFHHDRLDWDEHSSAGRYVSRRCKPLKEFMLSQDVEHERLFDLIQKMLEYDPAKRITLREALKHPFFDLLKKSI
Fyn, sequence (P06241 whole entry): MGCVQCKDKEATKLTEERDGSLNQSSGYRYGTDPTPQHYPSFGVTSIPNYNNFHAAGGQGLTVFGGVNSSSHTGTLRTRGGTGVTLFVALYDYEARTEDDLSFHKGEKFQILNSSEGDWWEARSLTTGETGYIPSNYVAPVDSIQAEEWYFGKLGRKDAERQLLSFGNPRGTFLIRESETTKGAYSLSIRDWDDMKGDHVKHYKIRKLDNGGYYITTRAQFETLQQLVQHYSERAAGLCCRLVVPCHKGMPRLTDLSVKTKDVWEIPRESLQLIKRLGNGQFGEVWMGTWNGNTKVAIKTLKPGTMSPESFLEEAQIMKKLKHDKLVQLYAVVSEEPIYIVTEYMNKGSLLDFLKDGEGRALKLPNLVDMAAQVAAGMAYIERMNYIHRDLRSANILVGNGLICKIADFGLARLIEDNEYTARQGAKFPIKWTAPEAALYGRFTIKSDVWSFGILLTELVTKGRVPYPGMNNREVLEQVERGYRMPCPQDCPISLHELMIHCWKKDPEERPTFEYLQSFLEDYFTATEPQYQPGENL
EMK, sequence (Q7KZI7 whole entry): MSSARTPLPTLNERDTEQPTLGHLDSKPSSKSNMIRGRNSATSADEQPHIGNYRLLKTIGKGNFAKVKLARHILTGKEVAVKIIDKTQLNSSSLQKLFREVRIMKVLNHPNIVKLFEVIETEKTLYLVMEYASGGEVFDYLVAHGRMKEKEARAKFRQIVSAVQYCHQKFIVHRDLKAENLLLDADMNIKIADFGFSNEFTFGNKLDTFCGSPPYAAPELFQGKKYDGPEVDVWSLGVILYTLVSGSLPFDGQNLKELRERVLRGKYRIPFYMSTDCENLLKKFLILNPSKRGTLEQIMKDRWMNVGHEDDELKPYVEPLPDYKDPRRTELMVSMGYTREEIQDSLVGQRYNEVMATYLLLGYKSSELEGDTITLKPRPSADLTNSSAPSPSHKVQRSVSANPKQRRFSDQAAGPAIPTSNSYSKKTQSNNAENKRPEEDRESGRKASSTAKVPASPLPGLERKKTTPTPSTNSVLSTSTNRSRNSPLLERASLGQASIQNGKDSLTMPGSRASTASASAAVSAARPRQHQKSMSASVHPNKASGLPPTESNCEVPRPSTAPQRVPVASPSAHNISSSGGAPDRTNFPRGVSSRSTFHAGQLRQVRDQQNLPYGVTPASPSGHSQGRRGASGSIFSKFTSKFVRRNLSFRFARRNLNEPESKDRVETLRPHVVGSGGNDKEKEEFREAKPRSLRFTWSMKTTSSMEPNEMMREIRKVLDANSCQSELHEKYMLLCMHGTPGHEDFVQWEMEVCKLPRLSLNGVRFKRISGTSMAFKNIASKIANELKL

Take `NC(=O)c1nc(-c2cccc3ccccc23)cnc1N` [Example 2, 3-Amino-6-naphthalen-1-ylpyrazine-2-carboxamide]: the IC50 in experiment [1] is 50 to 1000 nM; in experiment [2], 1000 to 10000 nM; in experiment [3] it was 1000 to 10000 nM; in experiment [4] it was at least 10000 nM; in experiment [5] it was 1000 to 10000 nM; in experiment [6] it was 50 to 1000 nM. For the same compound, in experiment [7], the IC50 lay within 1000 to 10000 nM.
